Measured values taken from patent US7786141B2 (Vertex Pharmaceuticals Incorporated, priority 2004, dated 2010).

Tests used:
M1 muscarinic receptor = target: T1, M1 muscarinic receptor (Homo sapiens, UniProt P11229); assay: Functional mobilization of intracellular calcium (FLIPR) in M1-CHO cells; type: cell-based; conditions: Table 4; for Emax: 100% efficacy is the maximum response obtained with the Carbachol control; for M1 Activity: modulating M1 receptor
T1 construct: expressed in transfected cells; host or cells: CHO (M1-CHO)
T1 sequence (P11229 1-460): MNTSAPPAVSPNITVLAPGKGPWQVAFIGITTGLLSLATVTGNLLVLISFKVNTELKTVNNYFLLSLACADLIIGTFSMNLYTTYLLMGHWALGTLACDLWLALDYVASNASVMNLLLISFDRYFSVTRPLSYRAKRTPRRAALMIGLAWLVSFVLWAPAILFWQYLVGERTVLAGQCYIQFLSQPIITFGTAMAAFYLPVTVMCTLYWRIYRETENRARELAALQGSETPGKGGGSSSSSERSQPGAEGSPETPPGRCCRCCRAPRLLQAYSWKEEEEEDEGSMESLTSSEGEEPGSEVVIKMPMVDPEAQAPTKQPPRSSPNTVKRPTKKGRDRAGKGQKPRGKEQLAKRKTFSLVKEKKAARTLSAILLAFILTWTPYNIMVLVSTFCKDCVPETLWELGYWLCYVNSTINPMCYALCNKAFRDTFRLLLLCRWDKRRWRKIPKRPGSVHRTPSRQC
Method in brief: (§1)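 Two modes: direct compound addition for agonism, or 15 min compound pre-incubation (or co-application) before carbachol at EC80 for inhibition. Calcium signal from Fluo-3 AM or Calcium 3 dye in CHO cells, 1 mM probenecid, pH 7.4, read 60 sec at 488/540 nm; DMSO 0.5% final.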

M4 muscarinic receptor = target: T2, M4 muscarinic receptor (Homo sapiens, UniProt P08173); assay: Functional mobilization of intracellular calcium (FLIPR) in M4-CHO cells; type: cell-based; conditions: Table 4; for Emax: 100% efficacy is the maximum response obtained with the Carbachol control; for M4 Activity: modulating M4 receptor
T2 construct: expressed in transfected cells; host or cells: CHO (M4-CHO)
T2 sequence (P08173 1-479): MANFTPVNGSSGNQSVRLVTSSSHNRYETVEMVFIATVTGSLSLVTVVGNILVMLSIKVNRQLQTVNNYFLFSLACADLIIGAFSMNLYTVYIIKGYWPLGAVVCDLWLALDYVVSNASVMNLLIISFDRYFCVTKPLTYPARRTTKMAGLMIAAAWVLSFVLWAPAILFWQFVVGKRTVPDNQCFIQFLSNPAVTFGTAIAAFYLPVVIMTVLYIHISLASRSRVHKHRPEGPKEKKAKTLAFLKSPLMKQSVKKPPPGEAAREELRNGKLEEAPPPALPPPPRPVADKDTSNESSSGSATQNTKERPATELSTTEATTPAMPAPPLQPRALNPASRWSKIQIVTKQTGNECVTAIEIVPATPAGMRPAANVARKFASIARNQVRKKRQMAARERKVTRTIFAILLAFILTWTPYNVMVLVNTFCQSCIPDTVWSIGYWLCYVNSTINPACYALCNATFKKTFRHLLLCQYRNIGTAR
Method in brief: as §1

Structure (SMILES)	Emax (M1 muscarinic receptor) [%]	M1 Activity (M1 muscarinic receptor)	Emax (M4 muscarinic receptor) [%]	M4 Activity (M4 muscarinic receptor)
CCOC(=O)N1CCC(N2CCC3(CC2)CN(C(C)=O)c2c(-c4ccc(C)cc4)cccc23)CC1 [compound 768]	25 to 100	x (activity was measured to be greater than 5.0 μM)	< 25	x (activity was measured to be greater than 5.0 μM)
CCOC(=O)N1CCC(N2CCC3(CC2)CN(C(C)=O)c2ccc(Br)cc23)CC1 [compound 769]	25 to 100	xxx (activity was measured to be less than 2.0 μM)	25 to 100	xxx (activity was measured to be less than 2.0 μM)
COc1cccc(C(=O)N2CCC(N3CCC4(CC3)CN(C(=O)N(C)C)c3ccc(F)cc34)CC2)c1 [compound 770]	25 to 100	xxx (activity was measured to be less than 2.0 μM)	< 25	xx (activity was measured to be between 2.0 μM and 5.0 μM)
COC(=O)N1CCC(N2CCC3(CC2)CN(C(C)=O)c2ccc(F)cc23)C1 (stereo not shown) [compound 771]	< 25	x (activity was measured to be greater than 5.0 μM)	< 25	x (activity was measured to be greater than 5.0 μM)
CN(C)C(=O)N1CC2(CCN(C3CCCN(C(=O)OCCF)CC3)CC2)c2cc(F)ccc21 (stereo not shown) [compound 772]	25 to 100	xxx (activity was measured to be less than 2.0 μM)	25 to 100	xxx (activity was measured to be less than 2.0 μM)
CS(=O)(=O)N[C@H]1CCC2(CCN(CC3CCCCC3)CC2)c2ccccc21 [compound 773]	25 to 100	xxx (activity was measured to be less than 2.0 μM)	25 to 100	xxx (activity was measured to be less than 2.0 μM)
CCOC(=O)N1CCC(N2CCC3(CC2)C[C@H](NC(C)=O)c2cc(OC)c(OC)cc23)CC1 [compound 774]	25 to 100	x (activity was measured to be greater than 5.0 μM)	25 to 100	x (activity was measured to be greater than 5.0 μM)
C#CCOC(=O)N1CC[C@@H](CN2CCC3(CC2)CN(C(=O)N(C)C)c2ccc(F)cc23)C1 [compound 775]	25 to 100	xxx (activity was measured to be less than 2.0 μM)	25 to 100	xxx (activity was measured to be less than 2.0 μM)
CC#CCOC(=O)N1C2CCC1CC(N1CCC3(CC1)CN(C(C)=O)c1ccccc13)C2 (stereo not shown) [compound 777]	25 to 100	xxx (activity was measured to be less than 2.0 μM)	25 to 100	xxx (activity was measured to be less than 2.0 μM)
O=C(N[C@H]1CC2(CCN(C3CCCCC3)CC2)c2ccccc21)C1CC1 [compound 779]	25 to 100	xx (activity was measured to be between 2.0 μM and 5.0 μM)	< 25	xxx (activity was measured to be less than 2.0 μM)
CC(=O)N[C@H]1CC2(CCN(CC(=O)N3CCC(=O)N3)CC2)c2ccccc21 [compound 780]	< 25	x (activity was measured to be greater than 5.0 μM)	< 25	x (activity was measured to be greater than 5.0 μM)
CN(C)C(=O)N1CC2(CCN(C3CCN(C(=O)C4COc5ccccc5O4)CC3)CC2)c2cc(F)ccc21 (stereo not shown) [compound 781]	25 to 100	x (activity was measured to be greater than 5.0 μM)	< 25	x (activity was measured to be greater than 5.0 μM)
CC(=O)N[C@H]1CC2(CCN(CC(=O)N3C[C@@H](C)O[C@@H](C)C3)CC2)c2ccccc21 [compound 782]	< 25	x (activity was measured to be greater than 5.0 μM)	< 25	x (activity was measured to be greater than 5.0 μM)
